From PMC10141580, “Cyclic Dichalcogenides Extend the Reach of Bioreductive Prodrugs to Harness Thiol/Disulfide Oxidoreductases: Applications to seco-Duocarmycins Targeting the Thioredoxin System” (ACS Central Science, 2023)
Like-named read-outs stand apart in the source and are kept apart here.

Test system: panel of 140 standard cancer cell lines
Experiment: ProliFiler-140 cancer cell line screen (CellTiterGlo, 72 h)
Type: cell-based
Settings: read-out: IC50 [M] (ProliFiler-140)
Protocol: Incubations were performed for 72 h before automated viability readout with CellTiterGlo (Figure 8).
End of Figure S11 (part 5 of 5): ProliFiler-140 cancer cell line screening for cytotoxicity of the prodrugs.
8-data-point dose response curves from CellTiter-Glo® viability readout.
ProliFiler-140 cell line panel part V

With `COc1cccc2c1C(=O)c1c(O)c3c(c(O)c1C2=O)C[C@@](O)(C(=O)CO)C[C@@H]3O[C@H]1C[C@H](N)[C@H](O)[C@H](C)O1` [doxorubicin, reference compound] the IC50 (MCAS (Ovary), listed as Dox) was 1.13e-07 M, the IC50 (MCAS (Ovary)) was 1.1e-07 M and the IC50 (MDA MB 435 (Skin), listed as Dox) was 4.83e-07 M. The IC50 (MDA-MB-468 (Breast), listed as Dox) was 4.71e-08 M, the IC50 (MEC-1 (Blood), listed as Dox) was 7.33e-08 M and the IC50 (MKN-1 (Stomach), listed as Dox) was 5.25e-08 M. For the same compound, the IC50 (MOLM-13 (Blood), listed as Dox) was 2.12e-08 M, the IC50 (MV4-11 (Blood), listed as Dox) was 4.26e-09 M and the IC50 (Mia PaCA 2 (Pancreas), listed as Dox) was 7.4e-08 M. The IC50 (NCI-H82 (Lung), listed as Dox) was 6.24e-07 M, the IC50 (NCI-H292 (Lung), listed as Dox) was 7.17e-08 M and the IC50 (NCI-H838 (Lung), listed as Dox) was 1.51e-07 M. The IC50 (NCI-H1563 (Lung), listed as Dox) was 5.43e-07 M, the IC50 (NCI-H1573 (Lung), listed as Dox) was 2.97e-06 M and the IC50 (NCI-H1703 (Lung), listed as Dox) was 9.24e-08 M. For the same compound, the IC50 (NCI-H1838 (Lung), listed as Dox) was 2.52e-07 M, the IC50 (NCI-H2110 (Lung), listed as Dox) was 3.55e-08 M and the IC50 (NCI-H2110, NCI-H2110 (Lung)) was 3.6e-08 M. It also gave an IC50 (NCI-H2286 (Lung), listed as Dox) of 4.39e-08 M, an IC50 (OCI-AML5 (Blood), listed as Dox) of 3.09e-08 M and an IC50 (OCI-LY19 (Blood), listed as Dox) of 5.5e-09 M. The IC50 (OPM-2 (Blood), listed as Dox) was 2.4e-07 M, the IC50 (OV56, OV56 (Ovary)) was 2.02e-07 M and the IC50 (OVCAR-3 (Ovary), listed as Dox) was 3.73e-07 M. It also gave an IC50 (OVK18 (Ovary), listed as Dox) of 3.4e-08 M, an IC50 (OVK18, OVK18 (Ovary)) of 3.42e-08 M and an IC50 (P31/FUJ (Blood), listed as Dox) of 1.02e-07 M. It also gave an IC50 (PANC-1 (Pancreas), listed as Dox) of 8.01e-07 M, an IC50 (PC3 (Prostate), listed as Dox) of 7.4e-07 M and an IC50 (PC3 (Prostate)) of 7.38e-07 M. The IC50 (PC-9 (Lung), listed as Dox) was 1.92e-07 M, the IC50 (PC-9 (Lung)) was 1.9e-07 M and the IC50 (RERF-LC-Ad2, RERF-LC-Ad2 (Lung)) was 4.6e-07 M. For the same compound, the IC50 (RERF-LC-MS (Lung), listed as Dox) was 1.7e-07 M, the IC50 (RERF-LC-MS (Lung)) was 1.74e-07 M and the IC50 (RKO (Colon), listed as Dox) was 9.9e-08 M. It also gave an IC50 (RKO (Colon)) of 9.86e-08 M, an IC50 (RPMI 8226 (Blood), listed as Dox) of 8.8e-08 M and an IC50 (SCH (Stomach), listed as Dox) of 1.38e-07 M. The IC50 (SCH (Stomach)) was 1.4e-07 M, the IC50 (SK-BR-3 (Breast), listed as Dox) was 1.28e-07 M and the IC50 (SK-LU-1 (Lung), listed as Dox) was 2.67e-07 M. The IC50 (SK-MEL-3 (Skin), listed as Dox) was 5.12e-07 M, the IC50 (SK-N-FI (Brain), listed as Dox) was 1.4e-06 M and the IC50 (SK-N-MC (Brain), listed as Dox) was 1.47e-08 M. The IC50 (SK-N-SH (Brain), listed as Dox) was 9.82e-08 M, the IC50 (SK-OV3 (Ovary), listed as Dox) was 1.8e-07 M and the IC50 (SNU-1 (Stomach), listed as Dox) was 5.88e-08 M. For the same compound, the IC50 (SNU-216, SNU-216 (Stomach)) was 3.9e-07 M, the IC50 (SNU-840, SNU840 (Ovary)) was 1.33e-07 M and the IC50 (SU-DHL-5 (Blood), listed as Dox) was 9.15e-09 M. The IC50 (SW-1783 (Brain), listed as Dox) was 3e-07 M, the IC50 (T84 (Colon), listed as Dox) was 1.4e-06 M and the IC50 (T84 (Colon)) was 1.35e-06 M. For the same compound, the IC50 (T-47D (Breast), listed as Dox) was 4.35e-07 M, the IC50 (U87MG (Brain), listed as Dox) was 1.62e-07 M and the IC50 (U118MG (Brain), listed as Dox) was 2.6e-07 M. The IC50 (U251MG (Brain), listed as Dox) was 7.84e-07 M.
